Reference: publication PMC8869731, “KasQ an Epimerase Primes the Biosynthesis of Aminoglycoside Antibiotic Kasugamycin and KasF/H Acetyltransferases Inactivate Its Activity” (Biomedicines, 2022)
Like-named read-outs stand apart in the source and are kept apart here.

Tests used:
KasQ = KasQ (Streptomyces kasugaensis, UniProt A0A0K1H2R6); assay: Isothermal titration calorimetry (ITC) of KasQ wild type versus substrates; format: binding; conditions: for n: ITC binding stoichiometry; for n / ∆G / ∆H / ∆S / Kd: KasQ wild type; for n / Kd: 25 °C, 50 mM HEPES pH 8.0, 100 mM NaCl;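 as to all read-outs here: titration of 1 mM substrate into 0.1 mM KasQ, 18 injections spaced 120 s, data fitted to a single-site binding model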
Method: (§3) ITC analyses were carried out at 25 °C using an ITC200 microcalorimeter (MicroCal Inc., Northampton, MA, USA). […] The titration experiment contains 18 injections (2 μL for a duration of 4 s) and each injection was separated by 120 s. The distilled water was filled in the reference cell throughout all titrations. The cell stirring speed was 1000 rpm. The collected raw data were processed in Origin 7.0 (provided by MicroCal) by a non-linear least square method to a single-site binding model.

KasH = KasH (Streptomyces kasugaensis, UniProt A0A0K1H2T0); assay: ITC of KasH versus ligands; conditions: KasH; for n: ITC binding stoichiometry; for n / Kd: 50 mM MOPS pH 7.5, 100 mM NaCl; for ∆G / ∆H / ∆S / Kd: ITC;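 as to all read-outs here: isothermal titration calorimetry at 25 °C, 0.1 mM KasH in the cell titrated with 1 mM ligand over 18 injections, data fit with a one-site binding model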
Method: as §3

KasQ E308A = KasQ E308A (Streptomyces kasugaensis, UniProt A0A0K1H2R6, E308A); assay: biochemical; format: binding
Method: (§1) Site-directed mutagenesis was performed using QuikChange (Stratagene), following the manufacturer’s protocol. The wild-type KasQ plasmid (BCRC12349) was used as the template for the single mutation. All mutations were confirmed by DNA sequencing. KasQ mutants were expressed and purified with the same protocol as used for the wild-type protein.
(§2) The cell stirring speed was 1000 rpm.

KasQ Q95A = KasQ Q95A (Streptomyces kasugaensis, UniProt A0A0K1H2R6, Q95A); assay: biochemical; format: binding
Method: as §1, §2

KasQ Q95E = KasQ Q95E (Streptomyces kasugaensis, UniProt A0A0K1H2R6, Q95E); assay: biochemical; format: binding
Method: as §1, §2

Chain of KasH (A0A0K1H2T0 entry or part of it): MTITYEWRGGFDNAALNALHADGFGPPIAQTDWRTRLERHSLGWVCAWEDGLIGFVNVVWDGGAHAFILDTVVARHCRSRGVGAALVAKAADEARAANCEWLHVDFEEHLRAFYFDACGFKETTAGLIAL
Chain of KasQ Q95A (A0A0K1H2R6 entry or part of it Q95A): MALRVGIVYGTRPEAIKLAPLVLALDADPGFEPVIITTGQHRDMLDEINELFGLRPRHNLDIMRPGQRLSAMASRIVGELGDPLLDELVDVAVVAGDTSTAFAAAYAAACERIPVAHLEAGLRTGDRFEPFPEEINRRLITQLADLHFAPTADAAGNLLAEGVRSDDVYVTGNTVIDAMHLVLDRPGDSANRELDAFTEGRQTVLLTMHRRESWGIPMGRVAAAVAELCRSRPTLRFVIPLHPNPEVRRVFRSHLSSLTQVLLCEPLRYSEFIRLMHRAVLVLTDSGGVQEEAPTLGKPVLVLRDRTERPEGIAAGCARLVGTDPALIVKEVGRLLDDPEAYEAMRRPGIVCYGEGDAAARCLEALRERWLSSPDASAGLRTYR
Chain of KasQ E308A (A0A0K1H2R6 entry or part of it E308A): as the sequence (A0A0K1H2R6 entry or part of it Q95A) above, with A95Q counted along it
Chain of KasQ (A0A0K1H2R6 entry or part of it): as the sequence (A0A0K1H2R6 entry or part of it Q95A) above, with A95Q counted along it
Chain of KasQ Q95E (A0A0K1H2R6 entry or part of it Q95E): as the sequence (A0A0K1H2R6 entry or part of it Q95A) above, with A95E counted along it

| SMILES | ∆G (KasQ; ITC) | ∆H (KasQ; ITC) | ∆S (KasQ; ITC) | Kd (KasQ; ITC) | other results |
| --- | --- | --- | --- | --- | --- |
| Cc1cn([C@H]2C[C@H](O)[C@@H](COP(=O)(O)OP(=O)(O)O[C@H]3O[C@H](CO)[C@@H](O)[C@H](O)[C@H]3O)O2)c(=O)[nH]c1=O [TDP-Glc] | -26.25 ± 1.16 kJ/mol | -19.11 ± 1.16 kJ/mol | 5.72 cal mol^−1 K^−1 | – | n (KasQ): 0.3 ± 0.0; Kd (KasQ; ITC, read-out: Kd): 25.1 ± 0.2 µM |
| N[C@H]1C(O)O[C@H](CO)[C@@H](O)[C@@H]1O (some centres unmarked) [GlcNH2] | NBD | NBD | NBD | NBD | – |
| CC(=O)N[C@H]1[C@@H](OP(=O)(O)OP(=O)(O)OC[C@H]2O[C@@H](n3ccc(=O)[nH]c3=O)[C@H](O)[C@@H]2O)O[C@H](CO)[C@H](O)[C@@H]1O [UDP-GalNAc] | -19.84 ± 7.113 kJ/mol | -14.3 ± 7.113 kJ/mol | 4.44 cal mol^−1 K^−1 | – | n (KasQ): 1.8 ± 0.4 |
| Nc1ncnc2c1ncn2[C@@H]1O[C@H](COP(=O)(O)OP(=O)(O)O)[C@@H](O)[C@H]1O [ADP] | NBD | NBD | NBD | nor AMP, ADP, ATP, GMP, GDP, or GTP shows detectable binding affinity and NBD | – |
| O=C(O)[C@H]1OC(O)[C@H](O)[C@@H](O)[C@H]1O (some centres unmarked) [GalA] | NBD | NBD | NBD | NBD | – |
| OC[C@H]1OC(O)[C@@H](O)[C@@H](O)[C@@H]1O (stereo partly drawn) [D-Mannose] | NBD | NBD | NBD | NBD | – |
| O=C(O)[C@H]1OC(O)[C@H](O)[C@@H](O)[C@@H]1O (some centres unmarked) [GlcA] | NBD | NBD | NBD | NBD | – |
| CC(=O)CC(=O)SCCNC(=O)CCNC(=O)[C@H](O)C(C)(C)COP(=O)(O)OP(=O)(O)OC[C@H]1O[C@@H](n2cnc3c(N)ncnc32)[C@H](O)[C@@H]1OP(=O)(O)O [Acetoacetyl-CoA, acetoacetyl-CoA] | – | – | – | – | n (KasH): 0.5 ± 0.1; ∆G (KasH): -22.88 ± 10.36 kJ/mol; ∆H (KasH): -25.73 ± 10.36 kJ/mol; ∆S (KasH): -2.28 cal mol-1 K-1; Kd (KasH): 98 µM |
| Cc1cn([C@H]2C[C@H](O)[C@@H](COP(=O)(O)OP(=O)(O)OP(=O)(O)O)O2)c(=O)[nH]c1=O [TTP] | -21.46 ± 5.109 kJ/mol | -31.85 ± 5.109 kJ/mol | −8.33 cal mol^−1 K^−1 | – | n (KasQ): 1.1 ± 0.1; Kd (KasQ; ITC, read-out: Kd): 174 ± 20.2 µM |
| Nc1nc2c(ncn2[C@@H]2O[C@H](COP(=O)(O)O)[C@@H](O)[C@H]2O)c(=O)[nH]1 [GMP] | NBD | NBD | NBD | nor AMP, ADP, ATP, GMP, GDP, or GTP shows detectable binding affinity and NBD | – |
| O=C[C@H](O)[C@@H](O)[C@@H](O)[C@H](O)CO [D-Galactose] | NBD | NBD | NBD | NBD | – |
| OC[C@H]1OC(O)[C@H](O)[C@@H](O)[C@@H]1O (stereo partly drawn) [D-Glucose] | NBD | NBD | NBD | NBD | – |
| O=c1ccn([C@@H]2O[C@H](COP(=O)(O)OP(=O)(O)OP(=O)(O)O)[C@@H](O)[C@H]2O)c(=O)[nH]1 [UTP] | -23.62 ± 5.607 kJ/mol | -38.09 ± 5.607 kJ/mol | −11.6 cal mol^−1 K^−1 | – | n (KasQ): 1.0 ± 0.0; Kd (KasQ; ITC, read-out: Kd): 71.4 ± 5.7 µM |
| Nc1nc2c(ncn2[C@@H]2O[C@H](COP(=O)(O)OP(=O)(O)O)[C@@H](O)[C@H]2O)c(=O)[nH]1 [GDP] | NBD | NBD | NBD | nor AMP, ADP, ATP, GMP, GDP, or GTP shows detectable binding affinity and NBD | – |
| CC(=O)SCCNC(=O)CCNC(=O)[C@H](O)C(C)(C)COP(=O)(O)OP(=O)(O)OC[C@H]1O[C@@H](n2cnc3c(N)ncnc32)[C@H](O)[C@@H]1OP(=O)(O)O [AcCoA] | – | – | – | – | n (KasH): 1.3 ± 0.4; ∆G (KasH): -21.92 ± 34.29 kJ/mol; ∆H (KasH): -59.37 ± 34.29 kJ/mol; ∆S (KasH): -30.02 cal mol-1 K-1; Kd (KasH): 161 µM |
| O=C(O)[C@H]1O[C@H](OP(=O)(O)OP(=O)(O)OC[C@H]2O[C@@H](n3ccc(=O)[nH]c3=O)[C@H](O)[C@@H]2O)[C@H](O)[C@@H](O)[C@@H]1O [UDP-GlcA] | -23.5 ± 2.406 kJ/mol | -5.757 ± 2.406 kJ/mol | 14.2 cal mol^−1 K^−1 | – | n (KasQ): 1.5 ± 0.2; Kd (KasQ; ITC, read-out: Kd): 76.3 ± 15.2 µM; Kd (KasQ E308A): 106 µM; n (KasQ E308A; ITC binding stoichiometry, KasQ mutant E308A): 1.1 ± 0.7; ∆G (KasQ E308A; ITC, KasQ mutant E308A): -22.68 ± 15.45 kJ/mol; ∆H (KasQ E308A; ITC, KasQ mutant E308A): -13.36 ± 15.45 kJ/mol; ∆S (KasQ E308A; ITC, KasQ mutant E308A): 7.47 cal mol-1 K-1; Kd (KasQ Q95A): 44.4 µM; n (KasQ Q95A; ITC binding stoichiometry, KasQ mutant Q95A): 1.7 ± 0.0; ∆G (KasQ Q95A; ITC, KasQ mutant Q95A): -24.78 ± 0.354 kJ/mol; ∆H (KasQ Q95A; ITC, KasQ mutant Q95A): -2.823 ± 0.354 kJ/mol; ∆S (KasQ Q95A; ITC, KasQ mutant Q95A): 17.6 cal mol-1 K-1; Kd (KasQ Q95E): 11.8 µM; n (KasQ Q95E; ITC binding stoichiometry, KasQ mutant Q95E): 2.1 ± 0.1; ∆G (KasQ Q95E; ITC, KasQ mutant Q95E): -29.9 ± 0.0816 kJ/mol; ∆H (KasQ Q95E; ITC, KasQ mutant Q95E): -1.846 ± 0.0816 kJ/mol; ∆S (KasQ Q95E; ITC, KasQ mutant Q95E): 22.5 cal mol-1 K-1 |
| O=c1ccn([C@@H]2O[C@H](COP(=O)(O)OP(=O)(O)O)[C@@H](O)[C@H]2O)c(=O)[nH]1 [UDP 3] | -25.64 ± 2.311 kJ/mol | -17.28 ± 2.311 kJ/mol | 6.70 cal mol^−1 K^−1 | – | n (KasQ): 1.0 ± 0.0; Kd (KasQ; ITC, read-out: Kd): 32.2 ± 6.8 µM; binding affinity versus KasQ relative to UMP, UTP and TTP (KasQ; ITC, higher than that of the others): 2–5 fold |
| CC(C)(COP(=O)(O)OP(=O)(O)OC[C@H]1O[C@@H](n2cnc3c(N)ncnc32)[C@H](O)[C@@H]1OP(=O)(O)O)[C@@H](O)C(=O)NCCC(=O)NCCS [CoA] | – | – | – | – | n (KasH): 0.6 ± 0.0; ∆G (KasH): -22.92 ± 5.615 kJ/mol; ∆H (KasH): -30.75 ± 5.615 kJ/mol; ∆S (KasH): -6.28 cal mol-1 K-1; Kd (KasH): 96.1 µM |
| CCC(=O)SCCNC(=O)CCNC(=O)[C@H](O)C(C)(C)COP(=O)(O)OP(=O)(O)OC[C@H]1O[C@@H](n2cnc3c(N)ncnc32)[C@H](O)[C@@H]1OP(=O)(O)O [Propionyl-CoA, propionyl-CoA] | – | – | – | – | n (KasH): 0.5 ± 0.0; ∆G (KasH): -25.44 ± 1.639 kJ/mol; ∆H (KasH): -30.76 ± 1.639 kJ/mol; ∆S (KasH): -4.26 cal mol-1 K-1; Kd (KasH): 35 µM |
| CC(=O)N[C@H]1C(O)O[C@H](CO)[C@H](O)[C@@H]1O (some centres unmarked) [GalNAc] | NBD | NBD | NBD | NBD | – |
| CC(=O)NC1=CO[C@H](CO)[C@@H](O)[C@@H]1O [AAG 2, 2-acetamidoglucal] | NBD | NBD | NBD | NBD | Kd (KasQ; ITC, listed as AAG): no binding affinity |
| CC(=O)N[C@H]1C(O)O[C@H](CO)[C@@H](O)[C@@H]1O (some centres unmarked) [GlcNAc] | NBD | NBD | NBD | NBD | – |
| CC(C)CC(=O)SCCNC(=O)CCNC(=O)[C@H](O)C(C)(C)COP(=O)(O)OP(=O)(O)OC[C@H]1O[C@@H](n2cnc3c(N)ncnc32)[C@H](O)[C@@H]1OP(=O)(O)O [Isovaleryl-CoA, isovaleryl-CoA] | – | – | – | – | n (KasH): 1.0 ± 0.7; ∆G (KasH): -21.12 ± 13.25 kJ/mol; ∆H (KasH): -13.04 ± 13.25 kJ/mol; ∆S (KasH): 6.48 cal mol-1 K-1; Kd (KasH): 199 µM |
| Nc1nc2c(ncn2[C@@H]2O[C@H](COP(=O)(O)OP(=O)(O)OP(=O)(O)O)[C@@H](O)[C@H]2O)c(=O)[nH]1 [GTP] | NBD | NBD | NBD | nor AMP, ADP, ATP, GMP, GDP, or GTP shows detectable binding affinity and NBD | – |
| Nc1nc2c(ncn2[C@@H]2O[C@H](COP(=O)(O)OP(=O)(O)O[C@H]3O[C@H](CO)[C@@H](O)[C@H](O)[C@@H]3O)[C@@H](O)[C@H]2O)c(=O)[nH]1 [GDP-Man] | NBD | NBD | NBD | NBD | – |
| Nc1ncnc2c1ncn2[C@@H]1O[C@H](COP(=O)(O)O)[C@@H](O)[C@H]1O [AMP] | NBD | NBD | NBD | nor AMP, ADP, ATP, GMP, GDP, or GTP shows detectable binding affinity and NBD | – |
| O=c1ccn([C@@H]2O[C@H](COP(=O)(O)O)[C@@H](O)[C@H]2O)c(=O)[nH]1 [UMP] | -55.19 ± 5.209 kJ/mol | -38.72 ± 5.209 kJ/mol | – | – | n (KasQ): 1.0 ± 0.0; Kd (KasQ; ITC, read-out: Kd): 124 ± 70.9 µM |
| Nc1nc2c(ncn2[C@@H]2O[C@H](COP(=O)(O)OP(=O)(O)OC3O[C@H](CO)[C@@H](O)[C@H](O)[C@H]3O)[C@@H](O)[C@H]2O)c(=O)[nH]1 (some centres unmarked) [GDP-Glc] | NBD | NBD | NBD | NBD | – |
| Nc1ncnc2c1ncn2[C@@H]1O[C@H](COP(=O)(O)OP(=O)(O)OP(=O)(O)O)[C@@H](O)[C@H]1O [ATP] | NBD | NBD | NBD | nor AMP, ADP, ATP, GMP, GDP, or GTP shows detectable binding affinity and NBD | – |
